The record followed here is publication PMC6415679 (ChemMedChem, 2018).

One data set deals with J774A.1 cells. Particulars: 10 µM.
Data set [1] has as its target Bordetella pertussis adenylate cyclase toxin (ACT) (Bordetella pertussis, UniProt P0DKX7). Kind of data set: cell-based. The format is cell-based. Particulars: read-out: IC50 (concentration causing a 50% decrease in ACT-induced cAMP accumulation).
The next data set deals with human AC5 (Homo sapiens, UniProt O95622). The class given is cell-based.
Sequence of human AC5 (O95622 whole entry): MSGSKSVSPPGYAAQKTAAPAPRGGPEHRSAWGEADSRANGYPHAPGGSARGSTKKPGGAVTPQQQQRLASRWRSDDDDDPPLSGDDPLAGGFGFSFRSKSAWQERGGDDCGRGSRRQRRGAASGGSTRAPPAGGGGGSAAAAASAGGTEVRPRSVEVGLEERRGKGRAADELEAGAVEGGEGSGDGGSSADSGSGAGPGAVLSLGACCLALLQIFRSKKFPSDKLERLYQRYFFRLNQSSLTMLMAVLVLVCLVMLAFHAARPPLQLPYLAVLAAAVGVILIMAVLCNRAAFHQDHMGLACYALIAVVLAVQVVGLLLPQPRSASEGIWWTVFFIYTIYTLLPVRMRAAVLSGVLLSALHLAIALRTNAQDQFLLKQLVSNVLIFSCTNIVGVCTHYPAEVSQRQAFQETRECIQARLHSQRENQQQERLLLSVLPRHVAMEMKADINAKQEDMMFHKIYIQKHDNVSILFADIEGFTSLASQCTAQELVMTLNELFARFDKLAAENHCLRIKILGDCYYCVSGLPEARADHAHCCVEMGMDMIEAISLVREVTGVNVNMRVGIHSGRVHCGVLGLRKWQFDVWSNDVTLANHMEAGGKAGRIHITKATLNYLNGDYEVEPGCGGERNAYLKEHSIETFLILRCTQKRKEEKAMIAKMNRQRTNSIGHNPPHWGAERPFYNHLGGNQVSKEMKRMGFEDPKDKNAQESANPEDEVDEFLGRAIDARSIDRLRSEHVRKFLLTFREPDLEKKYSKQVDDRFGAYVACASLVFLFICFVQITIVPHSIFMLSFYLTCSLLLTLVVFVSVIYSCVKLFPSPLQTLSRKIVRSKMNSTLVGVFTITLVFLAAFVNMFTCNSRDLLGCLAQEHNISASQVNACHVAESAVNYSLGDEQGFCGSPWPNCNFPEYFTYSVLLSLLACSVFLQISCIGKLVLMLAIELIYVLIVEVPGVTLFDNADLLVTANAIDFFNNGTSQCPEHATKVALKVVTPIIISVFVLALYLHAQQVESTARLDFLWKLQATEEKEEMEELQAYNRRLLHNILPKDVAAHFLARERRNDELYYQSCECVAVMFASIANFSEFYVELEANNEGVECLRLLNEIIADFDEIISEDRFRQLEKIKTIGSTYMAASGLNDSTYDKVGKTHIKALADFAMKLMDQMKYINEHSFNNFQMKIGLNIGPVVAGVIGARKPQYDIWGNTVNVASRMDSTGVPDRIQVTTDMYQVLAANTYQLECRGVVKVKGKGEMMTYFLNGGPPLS
In another data set the target is human AC1 (Homo sapiens, UniProt Q08828). The format is cell-based.
The target in a further data set is human AC2 (Homo sapiens, UniProt Q08462). The class given is cell-based.
Sequence of human AC2 (Q08462 whole entry): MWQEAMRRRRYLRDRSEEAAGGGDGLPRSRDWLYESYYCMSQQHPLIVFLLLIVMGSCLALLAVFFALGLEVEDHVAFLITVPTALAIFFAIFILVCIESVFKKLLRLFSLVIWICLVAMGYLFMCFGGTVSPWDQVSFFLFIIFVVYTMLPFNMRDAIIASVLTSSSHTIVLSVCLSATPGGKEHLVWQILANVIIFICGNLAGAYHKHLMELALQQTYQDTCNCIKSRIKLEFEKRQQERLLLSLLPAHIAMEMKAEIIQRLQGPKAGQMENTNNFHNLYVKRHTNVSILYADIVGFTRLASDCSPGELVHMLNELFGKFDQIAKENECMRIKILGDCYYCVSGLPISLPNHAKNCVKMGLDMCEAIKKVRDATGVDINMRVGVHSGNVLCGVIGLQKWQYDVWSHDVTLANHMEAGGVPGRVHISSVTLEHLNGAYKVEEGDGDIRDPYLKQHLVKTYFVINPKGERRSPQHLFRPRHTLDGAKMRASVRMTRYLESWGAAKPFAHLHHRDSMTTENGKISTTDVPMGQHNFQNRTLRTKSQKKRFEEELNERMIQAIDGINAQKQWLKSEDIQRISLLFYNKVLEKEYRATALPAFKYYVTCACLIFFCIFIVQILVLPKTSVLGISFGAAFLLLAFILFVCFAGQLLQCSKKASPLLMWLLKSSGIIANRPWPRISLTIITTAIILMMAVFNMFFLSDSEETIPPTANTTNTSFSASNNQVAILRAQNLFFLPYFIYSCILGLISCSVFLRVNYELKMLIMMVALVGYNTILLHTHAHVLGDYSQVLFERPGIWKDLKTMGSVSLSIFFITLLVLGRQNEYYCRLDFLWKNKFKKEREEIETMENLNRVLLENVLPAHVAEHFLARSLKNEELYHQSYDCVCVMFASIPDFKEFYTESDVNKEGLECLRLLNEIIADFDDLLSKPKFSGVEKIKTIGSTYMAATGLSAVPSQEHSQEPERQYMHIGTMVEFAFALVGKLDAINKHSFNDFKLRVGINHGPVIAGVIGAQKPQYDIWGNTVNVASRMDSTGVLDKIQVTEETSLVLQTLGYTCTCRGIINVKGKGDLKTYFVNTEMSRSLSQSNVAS

Structures are written as SMILES. Entries after “also recorded” stand apart in the source; their conditions may differ.

Sequence of Bordetella pertussis adenylate cyclase toxin (ACT) (P0DKX7 whole entry, looked up): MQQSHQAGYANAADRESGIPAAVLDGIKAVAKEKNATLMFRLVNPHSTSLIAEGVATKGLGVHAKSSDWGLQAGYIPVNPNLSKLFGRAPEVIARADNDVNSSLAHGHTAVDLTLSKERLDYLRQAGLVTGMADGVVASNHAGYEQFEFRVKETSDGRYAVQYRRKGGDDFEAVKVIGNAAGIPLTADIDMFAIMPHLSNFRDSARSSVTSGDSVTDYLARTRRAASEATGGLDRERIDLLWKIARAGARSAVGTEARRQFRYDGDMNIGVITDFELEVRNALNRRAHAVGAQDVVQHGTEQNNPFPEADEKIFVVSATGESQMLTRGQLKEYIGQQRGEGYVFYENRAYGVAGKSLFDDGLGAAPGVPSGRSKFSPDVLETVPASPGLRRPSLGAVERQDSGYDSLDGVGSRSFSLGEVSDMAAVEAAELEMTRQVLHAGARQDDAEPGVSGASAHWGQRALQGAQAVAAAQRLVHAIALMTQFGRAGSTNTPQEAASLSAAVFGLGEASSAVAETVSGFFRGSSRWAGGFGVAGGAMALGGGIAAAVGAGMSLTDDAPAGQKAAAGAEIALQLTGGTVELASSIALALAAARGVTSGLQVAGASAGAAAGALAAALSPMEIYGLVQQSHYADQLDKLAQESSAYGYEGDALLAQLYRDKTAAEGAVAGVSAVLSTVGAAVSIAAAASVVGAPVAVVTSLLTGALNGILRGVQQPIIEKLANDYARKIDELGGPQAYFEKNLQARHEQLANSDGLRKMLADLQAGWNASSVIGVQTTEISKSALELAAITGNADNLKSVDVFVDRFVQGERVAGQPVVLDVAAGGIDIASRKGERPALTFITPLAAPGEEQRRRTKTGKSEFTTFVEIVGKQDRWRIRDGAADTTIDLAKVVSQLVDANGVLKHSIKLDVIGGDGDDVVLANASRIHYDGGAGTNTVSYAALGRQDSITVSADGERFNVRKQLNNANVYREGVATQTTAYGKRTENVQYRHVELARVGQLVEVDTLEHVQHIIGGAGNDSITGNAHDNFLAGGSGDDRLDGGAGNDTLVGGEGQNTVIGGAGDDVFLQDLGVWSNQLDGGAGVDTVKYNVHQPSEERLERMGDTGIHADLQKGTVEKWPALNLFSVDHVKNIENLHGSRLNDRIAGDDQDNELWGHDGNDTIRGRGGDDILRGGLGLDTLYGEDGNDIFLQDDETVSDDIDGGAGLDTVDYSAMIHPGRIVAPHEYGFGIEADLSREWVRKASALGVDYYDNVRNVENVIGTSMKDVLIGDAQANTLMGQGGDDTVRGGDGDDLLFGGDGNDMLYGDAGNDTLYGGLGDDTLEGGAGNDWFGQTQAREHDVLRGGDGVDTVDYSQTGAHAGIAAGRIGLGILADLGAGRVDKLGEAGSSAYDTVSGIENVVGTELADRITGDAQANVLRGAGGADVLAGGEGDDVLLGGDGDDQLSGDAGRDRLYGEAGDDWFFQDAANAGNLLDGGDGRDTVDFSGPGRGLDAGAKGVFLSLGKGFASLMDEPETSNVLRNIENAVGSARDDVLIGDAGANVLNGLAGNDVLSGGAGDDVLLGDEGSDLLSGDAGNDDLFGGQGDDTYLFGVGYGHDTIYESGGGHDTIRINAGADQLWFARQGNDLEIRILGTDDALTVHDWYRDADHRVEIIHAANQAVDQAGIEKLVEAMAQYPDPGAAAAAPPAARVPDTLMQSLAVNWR

In the case of `CC(C)OC(=O)[C@H](Cc1ccccc1)NP(=O)(COCCn1cc(Cl)c2c(N)ncnc21)N[C@@H](Cc1ccccc1)C(=O)OC(C)C` [Compound 6c, Bis(L-phenylalanineisopropyl ester) prodrug of 9-[2-(phosphorylmethoxy)ethyl]-7-chloro-7-deazaadenine], in the data set on J774A.1 cells, the “Viability (%)” value came to 89%. In addition, the IC50 in data set [1] was 1.27 ± 0.222 µM. On human AC5, the “Effect on AC5 in words” value was “no AC2 and AC5 inhibition was observed”; the “Response of Control (%) AC5” value stood at 182 ± 10%. Moreover, on human AC1, the “AC1 % Response” value was determined as 22 ±5%, the “Effect on AC1 in words” value was “selectively inhibit AC1” and the “Response of Control (%) AC1” value amounted to 23 ± 4%. In addition, at human AC1 (read-out: AC1 IC50), the IC50 was found to be 5.6 ± 1.7 µM. Besides, on human AC2, the “AC2 % Response” value worked out at 143 ±21%; the “Effect on AC2 in words” value was “potentiate; also recorded: no AC2 and AC5 inhibition was observed”; the “Response of Control (%) AC2” value is reported as 236 ± 39%.
On to `CC(C)OC(=O)C(Cc1ccccc1)NP(=O)(COCCc1ccc2c(N)ncnn12)NC(Cc1ccccc1)C(=O)OC(C)C` (stereo not shown) [Compound 39], for which the “Viability (%)” value in the data set with J774A.1 cells came to 96%. Further, the IC50 in data set [1] turned out to be 1.24 ± 0.603 µM. Further, the “Response of Control (%) AC5” value at human AC5 stood at 172 ± 12%. Also, at human AC1, the “Effect on AC1 in words” value is “selectively inhibit AC1” and the “Response of Control (%) AC1” value is listed as 56 ± 7%. At human AC2, the “Response of Control (%) AC2” value stood at 174 ± 3%.
As to `CC(C)OC(=O)[C@H](Cc1ccccc1)NP(=O)(COCCc1c[nH]c2c(N)ncnc12)N[C@@H](Cc1ccccc1)C(=O)OC(C)C` [Compound 15, Bis(L-phenylalanineisopropyl ester) prodrug of 9-[2-(phosphorylmethoxy)ethyl]-9-deazaadenine], the IC50 in data set [1] is over 10 µM. At human AC5, the “Response of Control (%) AC5” value is 134 ± 15%. In addition, on human AC1, the “Response of Control (%) AC1” value is 62 ± 9%. Besides, at human AC2, the “Response of Control (%) AC2” value is listed as 189 ± 27%.
Consider `Nc1ncnc2c1ncn2C1CCCO1` (stereo not shown) [SQ22536, reference compound], for which the “Response of Control (%) AC5” value on human AC5 is 67 ± 12%. Besides, the “Response of Control (%) AC2” value on human AC2 was determined as 52 ± 1%.
Take `CC(C)OC(=O)C(Cc1ccccc1)NP(=O)(COCCn1cnc2c(N)nccc21)NC(Cc1ccccc1)C(=O)OC(C)C` [Compound 2b, Bis(L-phenylalanineisopropyl ester) prodrug of 9-[2-(phosphorylmethoxy)ethyl]-3-deazaadenine]: in data set [1], the IC50 is over 10 µM. Further, at human AC5, the “Response of Control (%) AC5” value worked out at 77 ± 5%. Also, on human AC1, the “Response of Control (%) AC1” value came to 88 ± 15%. The “Response of Control (%) AC2” value on human AC2 came to 107 ± 26%.
As to `CC(C)OC(=O)[C@H](Cc1ccccc1)NP(=O)(COCCn1cnc2c(N)ccnc21)N[C@@H](Cc1ccccc1)C(=O)OC(C)C` [Compound 2a, Bis(L-phenylalanineisopropyl ester) prodrug of 9-[2-(phosphorylmethoxy)ethyl]-1-deazaadenine], the IC50 in data set [1] is over 10 µM. The “Response of Control (%) AC5” value on human AC5 stood at 98 ± 4%. For the same molecule, the “Response of Control (%) AC1” value at human AC1 was found to be 88 ± 6%. The “Response of Control (%) AC2” value on human AC2 is 149 ± 15%.
As for `CC(C)OC(=O)[C@H](Cc1ccccc1)NP(=O)(COCCc1cccc2c(N)ncnc12)N[C@@H](Cc1ccccc1)C(=O)OC(C)C` [Compound 31], the IC50 in data set [1] is over 10 µM. Further, at human AC5, the “Effect on AC5 in words” value is reported as “potentiate” and the “Response of Control (%) AC5” value was 220 ± 13%. At human AC1, the “Effect on AC1 in words” value is listed as “selectively inhibit AC1” and the “Response of Control (%) AC1” value is listed as 56 ± 6%. The “Response of Control (%) AC2” value on human AC2 was 197 ± 12%.
As for `Nc1ncc2c(n1)CC(c1ccco1)CC2=O` (stereo not shown) [NKY80, reference compound], the “Response of Control (%) AC5” value at human AC5 came out at 54 ± 5%. The “Response of Control (%) AC1” value at human AC1 came to 74 ± 10%. Further, at human AC2, the “Response of Control (%) AC2” value was found to be 123 ± 27%.
